This test deals with T1, full length SGK1 (Homo sapiens, UniProt O00141).
T1 construct: 125 μM full length SGK1 (Life Technologies Part #PR7358A); purchased Life Technologies PR7358A
T1 sequence (O00141 1-431): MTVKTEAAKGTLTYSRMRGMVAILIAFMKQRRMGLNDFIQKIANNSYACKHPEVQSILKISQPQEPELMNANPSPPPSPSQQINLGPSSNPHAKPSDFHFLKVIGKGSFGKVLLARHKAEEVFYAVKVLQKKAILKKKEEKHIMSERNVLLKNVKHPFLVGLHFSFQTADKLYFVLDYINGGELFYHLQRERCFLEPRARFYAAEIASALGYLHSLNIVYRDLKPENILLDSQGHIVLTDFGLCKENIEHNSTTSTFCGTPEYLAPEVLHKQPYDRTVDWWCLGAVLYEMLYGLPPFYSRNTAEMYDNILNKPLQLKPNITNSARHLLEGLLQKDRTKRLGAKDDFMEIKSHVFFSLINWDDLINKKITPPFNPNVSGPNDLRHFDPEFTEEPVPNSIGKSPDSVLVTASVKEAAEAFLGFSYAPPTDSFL
The test can be described thus: SGK1 inhibition Assay A (Caliper LabChip electrophoretic separation of fluorescent peptide substrate and phosphorylated product). The class given is biochemical. Conditions: Assay A; 20 μM ATP, 40 min incubation; read-out: SGK1 IC50.

In general, IC50 refers to the point on the concentration scale where inhibition reaches its midpoint. On to `N#Cc1cc(-c2cc(N3CCC[C@@H](NC(=O)c4sc(C(F)F)cc4OC4COC4)C3)c3c(N)ncnn23)ccn1` [Example 437, (R)-N-(1-(4-amino-7-(2-cyanopyridin-4-yl)pyrrolo[2,1-f][1,2,4]triazin-5-yl)piperidin-3-yl)-5-(difluoromethyl)-3-(oxetan-3-yloxy)thiophene-2-carboxamide], for which the IC50 stood at 8 nM.

With `CC(=O)N1CC=C(c2cc(N3CCC[C@@H](NC(=O)c4sc(C(F)F)cc4OC4CCN(C)CC4)C3)c3c(N)ncnn23)C1` [Example 438, (R)—N-(1-(7-(1-acetyl-2,5-dihydro-1H-pyrrol-3-yl)-4-aminopyrrolo[2,1-f][1,2,4]triazin-5-yl)piperidin-3-yl)-5-(difluoromethyl)-3-((1-methylpiperidin-4-yl)oxy)thiophene-2-carboxamide], the 50% inhibitory concentration (IC50) is 6 nM. For `Cc1cc(-c2cc(N3CCC[C@@H](NC(=O)c4sc(C(F)F)cc4OC4CCN(C)CC4)C3)c3c(N)ncnn23)cnc1C#N` [Example 439, (R)-N-(1-(4-amino-7-(6-cyano-5-methylpyridin-3-yl)pyrrolo[2,1-f][1,2,4]triazin-5-yl)piperidin-3-yl)-5-(difluoromethyl)-3-((1-methylpiperidin-4-yl)oxy)thiophene-2-carboxamide], the IC50 was determined as 2 nM. For `CN1CCC(Oc2cc(C(F)F)sc2C(=O)N[C@@H]2CCCN(c3cc(-c4ccc(C#N)c(F)c4)n4ncnc(N)c34)C2)CC1` [Example 440, (R)-N-(1-(4-amino-7-(4-cyano-3-fluorophenyl)pyrrolo[2,1-f][1,2,4]triazin-5-yl)piperidin-3-yl)-5-(difluoromethyl)-3-((1-methylpiperidin-4-yl)oxy)thiophenc-2-carboxamide], the IC50 amounted to 3 nM. Turning to `COC(=O)N1CC=C(c2cc(N3CCC[C@@H](NC(=O)c4sc(C(F)F)cc4OC4CCN(C(C)C)CC4)C3)c3c(N)ncnn23)C1` [Example 441, Methyl (R)-3-(4-amino-5-(3-(5-(difluoromethyl)-3-((1-isopropylpiperidin-4-yl)oxy)thiophene-2-carboxamido)piperidin-1-yl)pyrrolo[2,1-f][1,2,4]triazin-7-yl)-2,5-dihydro-1H-pyrrole-1-carboxylate], the IC50 worked out at 10 nM. On to `CC(=O)N1CC=C(c2cc(N3CCC[C@@H](NC(=O)c4ccc(N(C)C)cc4)C3)c3c(N)ncnn23)C1` [Example 445], for which the IC50 stood at 5 nM. As for `CC(=O)N1CC=C(c2cc(N3CCC[C@@H](NC(=O)c4cnccn4)C3)c3c(N)ncnn23)C1` [Example 446, (R)-N-(1-(7-(1-acetyl-2,5-dihydro-1H-pyrrol-3-yl)-4-aminopyrrolo[2,1-][1,2,4]triazin-5-yl)piperidin-3-yl)pyrazine-2-carboxamide], the half-inhibitory concentration (IC50) was found to be 126 nM. Regarding `CC(=O)Nc1cccc(C(=O)N[C@@H]2CCCN(c3cc(C4=CCN(C(C)=O)C4)n4ncnc(N)c34)C2)c1` [Example 447, (R)-3-acetamido-N-(1-(7-(1-acetyl-2,5-dihydro-1H-pyrrol-3-yl)-4-aminopyrrolo[2,1-f][1,2,4]triazin-5-yl)piperidin-3-yl)benzamide], the IC50 stood at 19 nM. For `CC(=O)N1CC=C(c2cc(N3CCC[C@@H](NC(=O)c4cccc(C)n4)C3)c3c(N)ncnn23)C1` [Example 448, (R)-N-(1-(7-(1-acetyl-2,5-dihydro-1H-pyrrol-3-yl)-4-aminopyrrolo[2,1-][1,2,4]triazin-5-yl)piperidin-3-yl)-6-methylpicolinamide] the value was 4 nM; for `CC(=O)N1CC=C(c2cc(N3CCC[C@@H](NC(=O)c4csnn4)C3)c3c(N)ncnn23)C1` [Example 449, (R)-N-(1-(7-(1-acetyl-2,5-dihydro-1H-pyrrol-3-yl)-4-aminopyrrolo[2,1-f][1,2,4]triazin-5-yl)piperidin-3-yl)-1,2,3-thiadiazole-4-], 34 nM. `CC(=O)N1CC=C(c2cc(N3CCC[C@@H](NC(=O)c4csc(-c5cccnc5)n4)C3)c3c(N)ncnn23)C1` [Example 450, (R)-N-(1-(7-(1-acetyl-2,5-dihydro-1H-pyrrol-3-yl)-4-aminopyrrolo[2,1-f][1,2,4]triazin-5-yl)piperidin-3-yl)-2-(pyridin-3-yl)thiazole-4-carboxamide]: the concentration for half-maximal inhibition (IC50) was determined as 53 nM. Take `CC(=O)N1CC=C(c2cc(N3CCC[C@@H](NC(=O)c4cnc(C)cn4)C3)c3c(N)ncnn23)C1` [Example 451, (R)-N-(1-(7-(1-acetyl-2,5-dihydro-1H-pyrrol-3-yl)-4-aminopyrrolo[2,1-f][1,2,4]triazin-5-yl)piperidin-3-yl)-5-methylpyrazine-2-carboxamide]: the IC50 was 225 nM.

On to `CC(=O)N1CC=C(c2cc(N3CCC[C@@H](NC(=O)c4ccc5ncsc5c4)C3)c3c(N)ncnn23)C1` [Example 452, (R)-N-(1-(7-(1-acetyl-2,5-dihydro-1H-pyrrol-3-yl)-4-aminopyrrolo[2,1-f][1,2,4]triazin-5-yl)piperidin-3-yl)benzo[d]thiazole-6-carboxamide], for which the IC50 was 198 nM. `CC(=O)N1CC=C(c2cc(N3CCC[C@@H](NC(=O)c4csc(-c5ccccc5)n4)C3)c3c(N)ncnn23)C1` [Example 453, (R)-N-(1-(7-(1-acetyl-2,5-dihydro-1H-pyrrol-3-yl)-4-aminopyrrolo[2,1-f][1,2,4]triazin-5-yl)piperidin-3-yl)-2-phenylthiazole-4-carboxamide]: the IC50 was 7 nM. On to `CC(=O)N1CC=C(c2cc(N3CCC[C@@H](NC(=O)c4ccc(-c5ccccc5)o4)C3)c3c(N)ncnn23)C1` [Example 454, (R)-N-(1-(7-(1-acetyl-2,5-dihydro-1H-pyrrol-3-yl)-4-aminopyrrolo[2,1-f][1,2,4]triazin-5-yl)pipridin-3-yl)-5-phenylfuran-2-carboxamide], for which the IC50 came out at 1 nM. In the case of `CC(=O)N1CC=C(c2cc(N3CCC[C@@H](NC(=O)c4cc(C)on4)C3)c3c(N)ncnn23)C1` [Example 455, (R)-N-(1-(7-(1-acetyl-2,5-dihydro-1H-pyrrol-3-yl)-4-aminopyrrolo[2,1-f][1,2,4]triazin-5-yl)piperidin-3-yl)-5-methylisoxazole-3-], the IC50 stood at 246 nM. `CC(=O)N1CC=C(c2cc(N3CCC[C@@H](NC(=O)c4cc5ccccc5n4C)C3)c3c(N)ncnn23)C1` [Example 456, (R)-N-(1-(7-(1-acetyl-2,5-dihydro-1H-pyrrol-3-yl)-4-aminopyrrolo[2,1-f][1,2,4]triazin-5-yl)piperidin-3-yl)-1-methyl-1H-indole-2-carboxamide]: the 50% inhibitory concentration (IC50) was determined as 41 nM. Consider `CC(=O)N1CC=C(c2cc(N3CCC[C@@H](NC(=O)c4ccc(CO)cc4)C3)c3c(N)ncnn23)C1` [Example 457, (R)-N-(1-(7-(1-acetyl-2,5-dihydro-1H-pyrrol-3-yl)-4-aminopyrrolo[2,1-f][1,2,4]triazin-5-yl)piperidin-3-yl)-4-(hydroxymethyl)benzamide], for which the 50% inhibitory concentration (IC50) is 18 nM. Turning to `CC(=O)N1CC=C(c2cc(N3CCC[C@@H](NC(=O)c4cc(C(C)C)[nH]n4)C3)c3c(N)ncnn23)C1` [Example 458, (R)-N-(1-(7-(1-acetyl-2,5-dihydro-1H-pyrrol-3-yl)-4-aminopyrrolo[2,1-f][1,2,4]triazin-5-yl)piperidin-3-yl)-5-isopropyl-1H-pyrazole-3-carboxamide], the IC50 was 3 nM. `CC(=O)N1CC=C(c2cc(N3CCC[C@@H](NC(=O)C4=NN(c5ccccc5)C(=O)C4)C3)c3c(N)ncnn23)C1` [Example 459, (R)-N-(1-(7-(1-acetyl-2,5-dihydro-1H-pyrrol-3-yl)-4-aminopyrrolo[2,1-f][1,2,4]triazin-5-yl)piperidin-3-yl)-5-oxo-1-phenyl-4,5-dihydro-1H-pyrazole-3-carboxamide]: the IC50 was found to be 392 nM. In the case of `CC(=O)N1CC=C(c2cc(N3CCC[C@@H](NC(=O)c4ccc(-n5ccnc5)cc4)C3)c3c(N)ncnn23)C1` [Example 460, (R)-N-(1-(7-(1-acetyl-2,5-dihydro-1H-pyrrol-3-yl)-4-aminopyrrolo[2,1-f][1,2,4]triazin-5-yl)piperidin-3-yl)-4-(1H-imidazol-1-yl)benzamide], the half-maximal inhibitory concentration (IC50) came out at 67 nM.

Turning to `CC(=O)N1CC=C(c2cc(N3CCC[C@@H](NC(=O)c4scnc4C)C3)c3c(N)ncnn23)C1` [Example 461, (R)-N-(1-(7-(1-acetyl-2,5-dihydro-1H-pyrrol-3-yl)-4-aminopyrrolo[2,1-f][1,2,4]triazin-5-yl)piperidin-3-yl)-4-methylthiazole-5-carboxamide], the IC50 came out at 89 nM. For `CC(=O)N1CC=C(c2cc(N3CCC[C@@H](NC(=O)c4ccc(-c5ccncc5)cc4)C3)c3c(N)ncnn23)C1` [Example 462, (R)-N-(1-(7-(1-acetyl-2,5-dihydro-1H-pyrrol-3-yl)-4-aminopyrrolo[2,1-f][1,2,4]triazin-5-yl)piperidin-3-yl)-4-(pyridin-4-yl)benzamide], the concentration for half-maximal inhibition (IC50) is 26 nM. With `CC(=O)N1CC=C(c2cc(N3CCC[C@@H](NC(=O)c4ccc(CN5CCOCC5)cc4)C3)c3c(N)ncnn23)C1` [Example 463, (R)-N-(1-(7-(1-acetyl-2,5-dihydro-1H-pyrrol-3-yl)-4-aminopyrrolo[2,1-f][1,2,4]triazin-5-yl)piperidin-3-yl)-4-(morpholinomethyl)benzamide], the half-maximal inhibitory concentration (IC50) was found to be 400 nM. Turning to `CC(=O)N1CC=C(c2cc(N3CCC[C@@H](NC(=O)C4=NNC(=O)CC4)C3)c3c(N)ncnn23)C1` [Example 464, (R)-N-(1-(7-(1-acetyl-2,5-dihydro-1H-pyrrol-3-yl)-4-aminopyrrolo[2,1-f][1,2,4]triazin-5-yl)piperidin-3-yl)-6-oxo-1,4,5,6-tetrahydropyridazine-3-carboxamide], the half-inhibitory concentration (IC50) came out at 636 nM.

Source of the values: patent publication US20260250290A1 (BRISTOL-MYERS SQUIBB COMPANY, priority 2023, published 2026).
